Patent US11858941B2, “Heterocyclic and heteroaryl compounds for treating Huntington's disease” (PTC THERAPEUTICS, INC., priority 2018, dated 2024)

The compounds below were run on Endogenous Huntingtin Protein (assay: Endogenous Huntingtin Protein Assay (Meso Scale Discovery ELISA-based electrochemiluminescence)). Conditions: MSD plates coated with MW1 (expanded polyglutamine) or MAB2166 capture antibody; lysates.
Type: cell-based
Method: Compounds of Formula (I) were tested using the Meso Scale Discovery (MSD) Assay provided in International Application No. PCT/US2016/066042, filed on Dec. 11, 2016 and claiming priority to United States Provisional Application U.S. 62/265,652 filed on Dec. 10, 2015, the entire contents of which are incorporated herein by reference.
The Endogenous Huntingtin Protein assay used in Example 1 was developed using the ELISA-based MSD electrochemiluminescence assay platform.
Endogenous Huntingtin Protein Assay
Meso Scale Discovery (MSD) 96-well or 384-well plates were coated overnight at 4° C. with MW1 (expanded polyglutamine) or MAB2166 monoclonal antibody (for capture) at a concentration of 1 μg/mL in PBS (30 μL per well). Plates were then washed three times with 300 μL wash buffer (0.05% Tween-20 in PBS) and blocked (100 μL blocking buffer; 5% BSA in PBS) for 4-5 hours at room temperature with rotational shaking and then washed three times with wash buffer.
Samples (25 μL) were transferred to the antibody-coated MSD plate and incubated overnight at 4° C. After removal of the lysates, the plate was washed three times with wash buffer, and 25 μL of #5656S (Cell signaling; rabbit monoclonal) secondary antibody (diluted to 0.25 μg/mL in 0.05% Tween-20 in blocking buffer) was added to each well and incubated with shaking for 1 Hour at room temperature. Following incubation with the secondary antibody, the wells were rinsed with wash buffer after which 25 μL of goat anti-rabbit SULFO TAG secondary detection antibody (required aspect of the MSD system) (diluted to 0.25 μg/mL in 0.05% Tween-20 in blocking buffer) was added to each well and incubated with shaking for 1 hour at room temperature. After rinsing three times with wash buffer, 150 μL of read buffer T with surfactant (MSD) were added to each empty well, and the plate was imaged on a SI 6000 imager (MSD) according to manufacturers' instructions provided for 96- or 384-well plates.
Compound `CC1(C)CC(n2nnc3cc(-c4ccc(-c5ccnc(C(F)(F)F)c5)cc4O)nnc32)CC(C)(C)N1` [Cpd 74, 2-[3-(2,2,6,6,-tetramethylpiperidin-4-yl)-3H-[1,2,3]triazolo[4,5-c]pyridazin-6-yl]-5-[2-(trifluoromethyl)pyridin-4-yl]phenol] has an IC50 of 100 to 500 nM.
`Oc1cc(-c2cn[nH]c2)ccc1-c1cc2[nH]cc(C3CCNCC3)c2nn1` [Cpd 12, 2-[7-(piperidin-4-yl)-5H-pyrrolo[3,2-c]pyridazin-3-yl]-5-(1H-pyrazol-4-yl)phenol] was tested, and the IC50 was 100 to 500 nM.
`CC1(C)CC(n2nnc3cc(-c4ccc(-n5cccn5)cc4O)nnc32)CC(C)(C)N1` [Cpd 34, 5-(1H-pyrazol-1-yl)-2-[3-(2,2,6,6-tetramethylpiperidin-4-yl)-3H-[1,2,3]triazolo[4,5-c]pyridazin-6-yl]phenol] gave an IC50 of 100 to 500 nM.
With `CC1(C)CC(n2nnc3cc(-c4ccc(-c5cnc6cnccn56)cc4O)nnc32)CC(C)(C)N1` [Cpd 85, 5-(imidazo[1,2-a]pyrazin-3-yl)-2-[3-(2,2,6,6-tetramethylpiperidin-4-yl)-3H-[1,2,3]triazolo[4,5-c]pyridazin-6-yl]phenol] the IC50 was 1000 to 3000 nM.
`CC1(C)CC(n2nnc3cc(-c4ccc(-c5ccn6ccnc6c5)cc4O)nnc32)CC(C)(C)N1` [Cpd 90, 5-(imidazo[1,2-a]pyridin-7-yl)-2-[3-(2,2,6,6-tetramethylpiperidin-4-yl)-3H-[1,2,3]triazolo[4,5-c]pyridazin-6-yl]phenol] showed an IC50 of 100 to 500 nM.
With `CNc1nc2cc(-c3ccc(-c4cn[nH]c4)cc3O)nnc2n1C1CC(C)(C)NC(C)(C)C1` [Cpd 42, 2-[6-(methylamino)-7-(2,2,6,6-tetramethylpiperidin-4-yl)-7H-imidazo[4,5-c]pyridazin-3-yl]-5-(1H-pyrazol-4-yl)phenol] the IC50 was 100 to 500 nM.
`CN(C)c1ccc(-c2ccc(-c3cc4nnn(C5CC(C)(C)NC(C)(C)C5)c4nn3)c(O)c2)cn1` [Cpd 84, 5-[6-(dimethylamino)pyridin-3-yl]-2-[3-(2,2,6,6-tetramethylpiperidin-4-yl)-3H-[1,2,3]triazolo[4,5-c]pyridazin-6-yl]phenol] was tested, and the IC50 was 1000 to 3000 nM.
For `CC1(C)CC(n2ccc3cc(-c4ccc(-c5cn[nH]c5)cc4O)nnc32)CC(C)(C)N1` [Cpd 26, 5-(1H-pyrazol-4-yl)-2-[7-(2,2,6,6-tetramethylpiperidin-4-yl)-7H-pyrrolo[2,3-c]pyridazin-3-yl]phenol], the IC50 was no more than 100 nM.
`Cc1nsc(-c2ccc(-c3cc4nnn(C5CC(C)(C)NC(C)(C)C5)c4nn3)c(O)c2)n1` [Cpd 153, 5-(3-methyl-1,2,4-thiadiazol-5-yl)-2-[3-(2,2,6,6-tetramethylpiperidin-4-yl)-3H-[1,2,3]triazolo[4,5-c]pyridazin-6-yl]phenol] was tested, and the IC50 was no more than 100 nM.
With `CC1(C)CC(n2nnc3cc(-c4ncc(-c5cn[nH]c5)cc4O)nnc32)CC(C)(C)N1` [Cpd 140, 5-(1H-pyrazol-4-yl)-2-[3-(2,2,6,6-tetramethylpiperidin-4-yl)-3H-[1,2,3]triazolo[4,5-c]pyridazin-6-yl]pyridin-3-ol] the IC50 was no more than 100 nM.
For `CC1(C)CC(n2cnc3cc(-c4ccc(-c5cn[nH]c5)cc4O)nnc32)CC(C)(C)N1` [Cpd 3, 5-(1H-pyrazol-4-yl)-2-[7-(2,2,6,6-tetramethylpiperidin-4-yl)-7H-imidazo[4,5-c]pyridazin-3-yl]phenol], the IC50 was no more than 100 nM.
Compound `CC1(C)CC(n2nnc3cc(-c4ccc(-c5cnn(C(F)F)c5)cc4O)nnc32)CC(C)(C)N1` [Cpd 71, 5-[1-(difluoromethyl)-1H-pyrazol-4-yl]-2-[3-(2,2,6,6-tetramethylpiperidin-4-yl)-3H-[1,2,3]triazolo[4,5-c]pyridazin-6-yl]phenol] has an IC50 of 100 to 500 nM.
`Cn1cc(-c2ccc(-c3cc4nnn(C5CC(C)(C)NC(C)(C)C5)c4nn3)c(O)c2)nn1` [Cpd 138, 5-(1-methyl-1H-1,2,3-triazol-4-yl)-2-[3-(2,2,6,6-tetramethylpiperidin-4-yl)-3H-[1,2,3]triazolo[4,5-c]pyridazin-6-yl]phenol] was tested, and the IC50 was 100 to 500 nM.
`Oc1cc(-c2cn[nH]c2)ccc1-c1cc2cnn(C3CCNCC3)c2nn1` [Cpd 21, 2-[1-(piperidin-4-yl)-1H-pyrazolo[3,4-c]pyridazin-5-yl]-5-(1H-pyrazol-4-yl)phenol] showed an IC50 of 1000 to 3000 nM.
`CC1(C)CC(n2nnc3cc(-c4ccc(-c5cncs5)cc4O)nnc32)CC(C)(C)N1` [Cpd 107, 2-[3-(2,2,6,6-tetramethylpiperidin-4-yl)-3H-[1,2,3]triazolo[4,5-c]pyridazin-6-yl]-5-(1,3-thiazol-5-yl)phenol] gave an IC50 of no more than 100 nM.
In the case of `CC1(C)C[C@H](n2nnc3cc(-c4ccc(-c5cn[nH]c5)cc4O)nnc32)[C@H](F)C(C)(C)N1` [Cpd 164, 2-{3-[(3S,4S)-3-fluoro-2,2,6,6-tetramethylpiperidin-4-yl]-3H-[1,2,3]triazolo[4,5-c]pyridazin-6-yl}-5-(1H-pyrazol-4-yl)phenol], the IC50 is reported as no more than 100 nM.
`Oc1cc(-c2cn[nH]c2)ccc1-c1cc2[nH]cc(C3=CCNCC3)c2nn1` [Cpd 11, 5-(1H-pyrazol-4-yl)-2-[7-(1,2,3,6-tetrahydropyridin-4-yl)-5H-pyrrolo[3,2-c]pyridazin-3-yl]phenol] showed an IC50 of 1000 to 3000 nM.
For `CC1(C)CC(n2nnc3cc(-c4ccc(-c5ccncc5)cc4O)nnc32)CC(C)(C)N1` [Cpd 66, 5-(pyridin-4-yl)-2-[3-(2,2,6,6-tetramethylpiperidin-4-yl)-3H-[1,2,3]triazolo[4,5-c]pyridazin-6-yl]phenol], the IC50 was no more than 100 nM.
Compound `CC1(C)CC(n2cnc3cc(-c4cc(F)c(-c5cn[nH]c5)cc4F)nnc32)CC(C)(C)N1` [Cpd 4, 3-[2,5-difluoro-4-(1H-pyrazol-4-yl)phenyl]-7-(2,2,6,6-tetramethylpiperidin-4-yl)-7H-imidazo[4,5-c]pyridazine] has an IC50 of no more than 100 nM.
With `CN(C)c1cc(-c2ccc(-c3cc4nnn(C5CC(C)(C)NC(C)(C)C5)c4nn3)c(O)c2)ccn1` [Cpd 100, 5-[2-(dimethylamino)pyridin-4-yl]-2-[3-(2,2,6,6-tetramethylpiperidin-4-yl)-3H-[1,2,3]triazolo[4,5-c]pyridazin-6-yl]phenol] the IC50 was 1000 to 3000 nM.
`Cc1cn(-c2ccc(-c3cc4nnn(C5CC(C)(C)NC(C)(C)C5)c4nn3)c(O)c2)cn1` [Cpd 144, 5-(4-methyl-1H-imidazol-1-yl)-2-[3-(2,2,6,6-tetramethylpiperidin-4-yl)-3H-[1,2,3]triazolo[4,5-c]pyridazin-6-yl]phenol] showed an IC50 of no more than 100 nM.
With `CC1(C)CC(n2nnc3cc(-c4ccc(-c5cn6ccnc6cn5)cc4O)nnc32)CC(C)(C)N1` [Cpd 142, 5-(imidazo[1,2-a]pyrazin-6-yl)-2-[3-(2,2,6,6-tetramethylpiperidin-4-yl)-3H-[1,2,3]triazolo[4,5-c]pyridazin-6-yl]phenol] the IC50 was no more than 100 nM.
`CC1(C)CC(n2nnc3cc(-c4ccc(-c5cc6nn[nH]c6cn5)cc4O)nnc32)CC(C)(C)N1` [Cpd 146, 2-[3-(2,2,6,6-tetramethylpiperidin-4-yl)-3H-[1,2,3]triazolo[4,5-c]pyridazin-6-yl]-5-(3H-[1,2,3]triazolo[4,5-c]pyridin-6-yl)phenol] gave an IC50 of 1000 to 3000 nM.
Work on `COc1ncnc(-c2ccc(-c3cc4nnn(C5CC(C)(C)NC(C)(C)C5)c4nn3)c(O)c2)n1` [Cpd 159, 5-(4-methoxy-1,3,5-triazin-2-yl)-2-(3-(2,2,6,6-tetramethylpiperidin-4-yl)-3H-[1,2,3]triazolo[4,5-c]pyridazin-6-yl)phenol] yielded an IC50 of no more than 100 nM.
`CC1(C)CC(n2ccc3cc(-c4ccc(-n5nccn5)cc4O)nnc32)CC(C)(C)N1` [Cpd 176, 2-[7-(2,2,6,6-tetramethylpiperidin-4-yl)-7H-pyrrolo[2,3-c]pyridazin-3-yl]-5-(2H-1,2,3-triazol-2-yl)phenol] showed an IC50 of no more than 100 nM.
`CNc1cc(-c2ccc(-c3cc4nnn(C5CC(C)(C)NC(C)(C)C5)c4nn3)c(O)c2)ccn1` [Cpd 104, 5-[2-(methylamino)pyridin-4-yl]-2-[3-(2,2,6,6-tetramethylpiperidin-4-yl)-3H-[1,2,3]triazolo[4,5-c]pyridazin-6-yl]phenol] gave an IC50 of no more than 100 nM.
`[2H]C([2H])([2H])n1cc(-c2ccc(-c3cc4nnn(C5CC(C)(C)NC(C)(C)C5)c4nn3)c(O)c2)cn1` [Cpd 69, 5-[1-(^2H3)methyl-1H-pyrazol-4-yl]-2-[3-(2,2,6,6-tetramethylpiperidin-4-yl)-3H-[1,2,3]triazolo[4,5-c]pyridazin-6-yl]phenol] gave an IC50 of no more than 100 nM.
`[2H]C([2H])([2H])n1cc(-c2ccc(-c3cc4cnn(C5CC(C)(C)NC(C)(C)C5)c4nn3)c(O)c2)cn1` [Cpd 102, 5-[1-(^2H3)methyl-1H-pyrazol-4-yl]-2-[1-(2,2,6,6-tetramethylpiperidin-4-yl)-1H-pyrazolo[3,4-c]pyridazin-5-yl]phenol] gave an IC50 of no more than 100 nM.
In the case of `CC1(C)CC(n2nnc3cc(-c4ccc(-c5ncns5)cc4O)nnc32)CC(C)(C)N1` [Cpd 134, 2-[3-(2,2,6,6-tetramethylpiperidin-4-yl)-3H-[1,2,3]triazolo[4,5-c]pyridazin-6-yl]-5-(1,2,4-thiadiazol-5-yl)phenol], the IC50 is reported as no more than 100 nM.
